Results from patent US20090081212A1, “USE AND TARGETING OF CD98 LIGHT-CHAIN PROTEINS IN THERAPIES FOR THYROID HORMONE DISORDERS” (The Government of the U.S.A., as Represented by the …, priority 2000, published 2009).

Columns and labels:
4F2hc-IU12 heterodimers = assay: Thyroid hormone and amino acid transport by 4F2hc-IU12 heterodimers expressed in Xenopus oocytes (radiotracer uptake and its inhibition); assay type: cell-based, Xenopus laevis; conditions: for inhibition of 4F2hc-IU12 induced [3H]tryptophan uptake, in words: 1 μM tryptophan tracer, inhibitors 10 μM T4, 5 mM BCH, increasing unlabelled T3 or tryptophan; for inhibition of 4F2hc-IU12 induced 0.1 μM TH (T3) uptake, in words: inhibitors 10 μM T3/T4, 5 mM BCH, 10 mM tryptophan, data shown for T3 only; for Vmax of 4F2hc-IU12 induced transport / Km / uptake of [3H]phenylalanine and [3H]tryptophan: 4F2hc-IU12 injected oocytes; for Vmax of 4F2hc-IU12 induced transport / Km: 4 days post-injection, TH 0.05-10 μM, 60 min uptake; for Km: read-out: apparent Km of 4F2hc-IU12 induced transport; for uptake of [3H]phenylalanine and [3H]tryptophan: 50 μM amino acid, preliminary experiments
Description: Xenopus laevis toads were purchased from the South African Xenopus Facility. Chemicals were obtained from Sigma (UK) with the exception of Collagenase A (Boehringer, UK) and Ultraspec water (Ambion, UK). Radiotracers were purchased from NEN (UK). cDNAs encoding IU12 (2.3 Kb EcoRI/ApaI fragment from pBluescriptSK-IU12) (Liang et al. 1997, Cell Res 7: 179-193) and human 4F2hc (1.85 Kb Ecor1/BamH1 fragment from pSP65-4F2) (Teixeira et al. 1987, J Biol Chem 262: 9574-9580) were subcloned into the multiple-cloning region of pSG5 (an SV-40 driven expression plasmid).
(§1) Oocytes were isolated by collagenase treatment (Peter et al. 1996, Biochem J 318: 915-922) of ovarian tissue obtained from mature female Xenopus laevis toads (South African Xenopus Facility). Defolliculated, stage V-V1 (prophase-arrested) oocytes were selected and maintained at 18° C. in Modified Barth's Medium (MBM) containing (in mM): 88 NaCl, 1 KCL, 2.4 NaHCO3, 0.82 MgSO4.7H2O, 0.66 NaNO3, 0.75 CaCl2x2H2O, 5.0 HEPES, pH 7.6 with Tris base, 10 mg/liter gentamycin sulphate. For DNA injection, oocytes were transferred into individual wells of Tetraski plates pre-filled with MBM and centrifuged at 500 g for 10 minutes at 18° C., which causes migration of the nucleus to the cell surface and facilitates nuclear injection (Mertz & Gurdon 1977, PNAS 395: 288-291). The visible nucleus of each oocyte was injected with 2 ng DNA in 15 nl Ultraspec water using a pneumatic delivery system (Peter et al. 1996, Biochem J 318: 915-922). For co-injection studies, 2 ng of both DNAs (i.e. 4F2hc/IU12) were injected. Nuclei of control oocytes were injected with Ultraspec water. Oocytes were incubated in MBM at 18° C. for 4 days to allow expression of injected DNA before experimentation.
(§2) All experiments were carried out at 22° C. using Na^+-free transport buffer (unless otherwise stated) containing 100 mM tetramethylammonium chloride (TMACl), 2 mM KCl; 1 mM CaCl2; 1 mM MgCl2; 10 mM HEPES, pH 7.5 with Tris). Radiolabelled amino acid uptake (3H-phenylalanine or ^3H-tryptophan over 30 min) was also measured (Peter et al. 1996, Biochem J 318: 915-922). BCH (5 mM) was used as a specific inhibitor of amino acid transport System L.
Data are expressed as mean values±standard error of the mean (S.E.M; n=number of observations). Experimental measurements in each batch of oocytes were made on 7-11 individual oocytes. Differences between mean values were assessed using Students unpaired t-test, with significance assigned at p<0.05.

[1] = test system: T3-dependent activation of luciferase activity; assay: Thyroid-responsive luciferase reporter (TRE) in oocytes expressing 4F2hc-IU12; assay type: cell-based, Xenopus laevis; conditions: 5 mM BCH, 10 nM T3, 24 h; preliminary data from one batch of oocytes
Procedure: FIG. 6. […] Ratio of luminescent counts for each oocyte type compared to thyroid-responsive luciferase (TRE)-only injected oocytes. Data shown for n=4 batches (each 7-9 oocytes). […] 4/I/R/T—4F2hc/IU12/RXRα/TRβ co-injected oocytes. RXRα/TRβ (heterodimers of RXR, or 9-cis retinoic acid receptor, and TR)— nuclear receptors for TH; *, significant change in luciferase activity compared to TRE-only injected oocytes (p<0.05). […] All incubations were performed over a 24-hour time period.
Overexpression of the 4F2hc-IU12 heterodimer in oocytes produced a functional activation of System L transporter activity.

[2] = test system: BeWo placental choriocarcinoma cells; assay: Nuclear uptake of [125I]T3 in BeWo cells; assay type: cell-based, human
[3] = test system: T3-dependent transcriptional activation of a luciferase reporter in BeWo cells; assay: T3-induced luciferase reporter activity in BeWo cells; assay type: cell-based, human; conditions: 24 h exposure
Procedure: FIG. 7. […] Infected cells were exposed to experimental conditions for 24 h prior to assay of luciferase activity.

water-injected oocytes = assay: Basal radiotracer uptake in control (water-injected) Xenopus oocytes; assay type: cell-based, Xenopus laevis; conditions: for uptake of [3H]phenylalanine and [3H]tryptophan: 50 μM amino acid, water-injected cells
Procedure: as §1, §2

[4] = biological target: human 4F2 heavy-chain (4F2hc) glycoprotein (human) (UniProt P08195)

NC1(C(=O)O)CC2CCC1C2 (stereo not shown) [BCH, 2-endoamino-bicycloheptane-2-carboxylic acid]
inhibition of 4F2hc-IU12 induced [3H]tryptophan uptake, in words (4F2hc-IU12 heterodimers): inhibited
inhibition of 4F2hc-IU12 induced 0.1 μM TH (T3) uptake, in words (4F2hc-IU12 heterodimers): significantly inhibited
effect on T3-dependent activation of luciferase activity in oocytes expressing 4F2hc-IU12 [1]: blocked
effect on nuclear uptake of [125I]T3 [2]: inhibit
effect on T3-dependent transcriptional activation of a luciferase reporter [3]: inhibit

N[C@@H](Cc1cc(I)c(Oc2ccc(O)c(I)c2)c(I)c1)C(=O)O [T3, tri-iodothyronine]
control T3 uptake (absence of inhibitor) (water-injected oocytes; 0.1 μM T3, water-injected oocytes): 22±3 fmol/oocyte.h

N[C@@H](Cc1cc(I)c(Oc2cc(I)c(O)c(I)c2)c(I)c1)C(=O)O [T4, thyroxine]
average increase in uptake over control (water- or IU12-injected oocytes) (4F2hc-IU12 heterodimers; 0.1 μM TH, n=5 batches of oocytes): 2.1±0.5 times
inhibition of 4F2hc-IU12 induced [3H]tryptophan uptake, in words (4F2hc-IU12 heterodimers): has not achieved statistical significance
Vmax of 4F2hc-IU12 induced transport (4F2hc-IU12 heterodimers): 2.0±0.6 pmol/oocyte.h
Km (4F2hc-IU12 heterodimers): 6.3 µM
inhibition of 4F2hc-IU12 induced 0.1 μM TH (T3) uptake, in words (4F2hc-IU12 heterodimers): mutual cross-inhibition

O=C(O)Cc1cc(I)c(Oc2ccc(O)c(I)c2)c(I)c1 [TRIAC, triodothyroacetic acid]
inhibition of T3 uptake, in words (water-injected oocytes; water-injected oocytes): did not inhibit
inhibition of tryptophan uptake, in words (water-injected oocytes; water-injected oocytes): did not inhibit

N[C@@H](Cc1ccccc1)C(=O)O [phenylalanine]
uptake of [3H]phenylalanine and [3H]tryptophan (4F2hc-IU12 heterodimers): 120 pmol/oocyte.h
uptake of [3H]phenylalanine and [3H]tryptophan (water-injected oocytes): 10 pmol/oocyte.h

NC(Cc1ccc(Oc2cc(I)c(O)c(I)c2)c(I)c1)C(=O)O (stereo not shown) [rT3, reverse tri-iodothyronine]
inhibition of induced 0.1 μM T3 uptake (4F2hc-IU12 heterodimers; inhibitor 10 μM, n=3 preparations): 41±4%

N[C@@H](Cc1c[nH]c2ccccc12)C(=O)O [tryptophan]
inhibition of 4F2hc-IU12 induced [3H]tryptophan uptake, in words (4F2hc-IU12 heterodimers): concentration-dependent inhibition
control tryptophan uptake (absence of inhibitor) (4F2hc-IU12 heterodimers; 1 μM tryptophan, 4F2hc-IU12-injected oocytes): 10.2±0.4 pmol/oocyte.h
uptake of [3H]phenylalanine and [3H]tryptophan (4F2hc-IU12 heterodimers): 120 pmol/oocyte.h
Vmax of 4F2hc-IU12 induced transport (4F2hc-IU12 heterodimers): 180±54 pmol/oocyte.h
Km (4F2hc-IU12 heterodimers): 70 µM
inhibition of 4F2hc-IU12 induced 0.1 μM TH (T3) uptake, in words (4F2hc-IU12 heterodimers): significantly inhibited
control tryptophan uptake (absence of inhibitor) (water-injected oocytes; 1 μM tryptophan, water-injected oocytes): 2.1±0.1 pmol/oocyte.h
uptake of [3H]phenylalanine and [3H]tryptophan (water-injected oocytes): 10 pmol/oocyte.h
effect on nuclear uptake of [125I]T3 [2]: inhibit
effect on T3-dependent transcriptional activation of a luciferase reporter [3]: inhibit

Xenopus laevis IU12 light-chain (lc) permease
uptake of [3H]phenylalanine and [3H]tryptophan into Xenopus oocytes (pmol/oocyte.h) [4]: 120
uptake of [125I]T3 and [125I]T4 (0.1 µM) into Xenopus oocytes (times over control (T3)) [4]: 2.7
